Test results as given in patent US8175371B2, “Method for imaging and differential analysis of cells” (Amnis Corporation, priority 2004, dated 2012).

Test system: Jurkat cells
Test: Annexin V / 7-AAD staining of treated Jurkat cells, evaluated by flow cytometry and fluorescence microscopy
Assay type: cell-based, Human
Details: Jurkat T cells, Alexa Fluor 488 annexin V and 7-AAD
Experimental: Human acute T leukemic Jurkat cell line was obtained from ATCC (Rockville, Md.; catalog number CRL-1990) and maintained in RPMI 1640 (Gibco, Grand Island, N.Y.) containing 5% fetal bovine serum, 1 mM sodium pyruvate (Mediatech, Herndon, Va.), 100 µM nonessential amino acids, 100 U/ml penicillin, 100 µg/ml streptomycin, and 2 mM L-glutamine (BioWhittaker, Walkersville, Md.) in 5% CO2 atmosphere at 37 degrees C. The density of exponentially growing cells was less than 3×10^5 cells per ml at the time of all treatments. To induce apoptosis, cells were treated for 18 hours with 1 µM camptothecin (CPT, Sigma), a DNA topoisomerase I inhibitor. […]
Control (untreated) cell, CPT treated (apoptotic) cells, and peroxide treated (necrotic) cells were independently counted and washed once in phosphate buffered saline (PBS, Fair Lawn, N.J.). […] Each cell group was washed in annexin V Binding Buffer, fixed in 2% paraformaldehyde (Sigma), and analyzed as either single populations or as a mixture by flow cytometry and immunofluorescence microscopy.
For flow cytometry, cell fluorescence data excited by a 488 nm laser were acquired using the FACSort™ cytometer (BD Immunocytometry Systems, San Jose, Calif.) and analyzed using CellQuest™ (BD Immunocytometry Systems). […]

Row | SMILES | annexin V / 7-AAD staining of treated cells (apoptosis induction) (1 µM CPT for 18 hours, FIG. 2B) | annexin V / 7-AAD staining of treated cells (necrosis induction) (0.3% hydrogen peroxide for 1 hour, FIG. 2C)
1 | CC[C@@]1(O)C(=O)OCc2c1cc1n(c2=O)Cc2cc3ccccc3nc2-1 [CPT, camptothecin] | two populations of cells, those that were annexin V^+ (single positive, SP, or early apoptotic cells), and those that were annexin V^+, 7-AAD^+ (double positive, DP, or late apoptotic cells) | 
2 | OO [peroxide, hydrogen peroxide] |  | stained positively with both annexin V and 7-AAD
